From ChEMBL document CHEMBL3046310, “Synthesis and antimicrobial screening of novel series of imidazo-[1,2-a]pyridine derivatives” (2012)
In brackets after ≈: the same amount, converted by molar mass.

Legend:
Format in all cases: functional
Aspergillus clavatus = assay: Antimicrobial activity against Aspergillus clavatus MTCC 1323 after 72 hr by serial broth dilution method; settings: MTCC 1323, 72 h
Candida albicans = assay: Antimicrobial activity against Candida albicans MTCC 227 after 72 hr by serial broth dilution method; settings: MTCC 227, 72 h
Pseudomonas aeruginosa = assay: Antimicrobial activity against Pseudomonas aeruginosa MTCC 1688 after 24 hr by serial broth dilution method; settings: MTCC 1688, 24 h
Staphylococcus aureus = assay: Antimicrobial activity against Staphylococcus aureus MTCC 96 after 24 hr by serial broth dilution method; settings: MTCC 96, 24 h
Streptococcus pyogenes = assay: Antimicrobial activity against Streptococcus pyogenes MTCC 442 after 24 hr by serial broth dilution method; settings: MTCC 442, 24 h
Escherichia coli = assay: Antimicrobial activity against Escherichia coli MTCC 443 after 24 hr by serial broth dilution method; settings: MTCC 443, 24 h
Aspergillus niger = assay: Antimicrobial activity against Aspergillus niger MTCC 282 after 72 hr by serial broth dilution method; settings: MTCC 282, 72 h

| SMILES | MIC (Aspergillus clavatus) [µg/mL] | MIC (Candida albicans) [µg/mL] | MIC (Pseudomonas aeruginosa) [µg/mL] | MIC (Staphylococcus aureus) [µg/mL] | MIC (Streptococcus pyogenes) [µg/mL] | MIC (Escherichia coli) [µg/mL] | MIC (Aspergillus niger) [µg/mL] |
| --- | --- | --- | --- | --- | --- | --- | --- |
| Cc1ccn2c(CN(C)C)c(-c3ccc(F)cc3F)nc2c1 | 100 (≈ 332 µM) | 500 (≈ 1660 µM) | 50 (≈ 166 µM) | 50 (≈ 166 µM) | 250 (≈ 830 µM) | 100 (≈ 332 µM) | 50 (≈ 166 µM) |
| Cc1ccn2c(CN(C)C)c(-c3cccc(Cl)c3)nc2c1 | 100 (≈ 334 µM) | 250 (≈ 834 µM) | 50 (≈ 167 µM) | 100 (≈ 334 µM) | 500 (≈ 1670 µM) | 100 (≈ 334 µM) | 100 (≈ 334 µM) |
| Cc1ccn2c(CN(C)C)c(-c3ccc(O)c([N+](=O)[O-])c3)nc2c1 | 1000 (≈ 3060 µM) | 1000 (≈ 3060 µM) | 250 (≈ 766 µM) | 500 (≈ 1530 µM) | 1000 (≈ 3060 µM) | 500 (≈ 1530 µM) | 1000 (≈ 3060 µM) |
| Cc1ccn2c(CN(C)C)c(-c3ccc([N+](=O)[O-])cc3Br)nc2c1 | 500 (≈ 1280 µM) | 1000 (≈ 2570 µM) | 100 (≈ 257 µM) | 500 (≈ 1280 µM) | 100 (≈ 257 µM) | 100 (≈ 257 µM) | 500 (≈ 1280 µM) |
| CC1(C)S[C@@H]2[C@H](NC(=O)[C@H](N)c3ccccc3)C(=O)N2[C@H]1C(=O)O [AMPICILLIN] | – | – | 100 (≈ 286 µM) | 250 (≈ 715 µM) | 100 (≈ 286 µM) | 100 (≈ 286 µM) | – |
| Cc1ccn2c(CN(C)C)c(-c3ccc(F)c(Cl)c3)nc2c1 | 1000 (≈ 3150 µM) | 250 (≈ 787 µM) | 100 (≈ 315 µM) | 50 (≈ 157 µM) | 50 (≈ 157 µM) | 50 (≈ 157 µM) | 1000 (≈ 3150 µM) |
| Cc1ccn2c(CN(C)C)c(-c3ccccc3O)nc2c1 | 1000 (≈ 3550 µM) | 1000 (≈ 3550 µM) | 500 (≈ 1780 µM) | 500 (≈ 1780 µM) | 500 (≈ 1780 µM) | 500 (≈ 1780 µM) | 1000 (≈ 3550 µM) |
| Cc1ccn2c(CN(C)C)c(-c3c(F)cccc3F)nc2c1 | 500 (≈ 1660 µM) | 1000 (≈ 3320 µM) | 25 (≈ 83 µM) | 250 (≈ 830 µM) | 100 (≈ 332 µM) | 25 (≈ 83 µM) | 100 (≈ 332 µM) |

Next, values leading:

| MIC (Aspergillus clavatus) [µg/mL] | MIC (Candida albicans) [µg/mL] | MIC (Pseudomonas aeruginosa) [µg/mL] | MIC (Staphylococcus aureus) [µg/mL] | MIC (Streptococcus pyogenes) [µg/mL] | MIC (Escherichia coli) [µg/mL] | MIC (Aspergillus niger) [µg/mL] | SMILES |
| --- | --- | --- | --- | --- | --- | --- | --- |
| 500 (≈ 1460 µM) | 500 (≈ 1460 µM) | 250 (≈ 730 µM) | 500 (≈ 1460 µM) | 250 (≈ 730 µM) | 500 (≈ 1460 µM) | 500 (≈ 1460 µM) | Cc1ccn2c(CN(C)C)c(-c3cc([N+](=O)[O-])c(O)cc3O)nc2c1 |
| 1000 (≈ 3360 µM) | 1000 (≈ 3360 µM) | 500 (≈ 1680 µM) | 500 (≈ 1680 µM) | 250 (≈ 841 µM) | 500 (≈ 1680 µM) | 1000 (≈ 3360 µM) | Cc1ccn2c(CN(C)C)c(-c3ccc(O)cc3O)nc2c1 |
| 250 (≈ 830 µM) | 125 (≈ 415 µM) | 250 (≈ 830 µM) | 500 (≈ 1660 µM) | 500 (≈ 1660 µM) | 50 (≈ 166 µM) | 250 (≈ 830 µM) | Cc1ccn2c(CN(C)C)c(-c3cccc(F)c3F)nc2c1 |
| 100 (≈ 290 µM) | 500 (≈ 1450 µM) | 100 (≈ 290 µM) | 500 (≈ 1450 µM) | 250 (≈ 726 µM) | 100 (≈ 290 µM) | 50 (≈ 145 µM) | Cc1ccn2c(CN(C)C)c(-c3ccccc3Br)nc2c1 |
| 100 (≈ 283 µM) | 500 (≈ 1420 µM) | – | – | – | – | 100 (≈ 283 µM) | COC1=CC(=O)C[C@@H](C)[C@]12Oc1c(Cl)c(OC)cc(OC)c1C2=O [GRISEOFULVIN] |
| 25 (≈ 69 µM) | 1000 (≈ 2760 µM) | 500 (≈ 1380 µM) | 250 (≈ 690 µM) | 25 (≈ 69 µM) | 500 (≈ 1380 µM) | 100 (≈ 276 µM) | Cc1ccn2c(CN(C)C)c(-c3cccc(Br)c3F)nc2c1 |
